8 molecules from patent US12643871B2, “Aryl formamide compound containing chiral sulfur oxide or salt thereof, preparation method, herbicidal composition and use thereof” (Qingdao Kingagroot Chemical Compound Co., Ltd., priority 2019, dated 2026) can be followed below.

What all share (type): in vivo
Data set [1] deals with Abutilon theophrasti. The experiment in a line: Comparison experiment (post-emergence) against racemate / S configuration. The conditions noted are these: 30 g/ha; 3-4 weeks after sowing, 4-5 leaf-stage of weed, 25DAA. An excerpt: (§1) The above growth control rates are fresh weight control rates.
(§2) Experiment on weeding effect in post-emergence stage: monocotyledonous and dicotyledonous weed seeds (Descurainia sophia, Capsella bursa-pastoris, Galium aparine, Stellaria media, Lithospermum arvense, Rorippa indica, Alopecurus aequalis, Beckmannia syzigachne, Sclerochloa dura, Phleum paniculatum, Bromus japonicus, Aegilops tauschii, Phalaris arundinacea, Amaranthus retroflexus, Chenopodiaceae, Commelina communis, Sonchus arvensis, convolvulus arvensis, Cirsium setosum, Solanum nigrum, Acalypha australis, Digitaria sanguinalis, Echinochloa crusgalli, Setaria viridis, Setaria glauca, Leptochloa chinensis, Monochoria vaginalis, Sagittaria trifolia, Scirpus juncoides, Cyperus rotundus, Cyperus iria, Cyperus difformis, Fimbristylis, Portulaca oleracea, Xanthium sibiricum, Pharbitis nil) and major crop seeds (wheat, corn, rice, soybean, cotton, oilseed rape, millet, sorghum, potato, sesame, ricinus) were placed in plastic pots filled with soil, then covered with 0.5-2 cm of soil, allowed to grow in a good greenhouse environment. […] The tested compounds of the present invention were respectively dissolved in acetone, then added with Tween 80 and 1.5 liter/ha of emulsifiable concentrate of methyl oleate as synergist, diluted with a certain amount of water to obtain a solution with a certain concentration, and sprayed with a spray tower onto the plants. […]
(§3) If there is no clear marker, the post-seedling test conditions are the same as above, and the experimental results are shown in Tables 4-7.

Data set [2] has as its system Green Setaria viridis. Described as above. The conditions noted are these: 60 g/ha; 3-4 weeks after sowing, 4-5 leaf-stage of weed, 25DAA.
Description: as §1, §2, §3

Data set [3] relates to Leptochloa chinensis. The data set is described as above. The conditions noted are these: 60 g/ha; 3-4 weeks after sowing, 4-5 leaf-stage of weed, 25DAA.
Description: as §1, §2, §3

The test system of data set [4] is Digitaria sanguinalis. The description is as above. The conditions noted are these: 30 g/ha, 3-4 weeks after sowing, 4-5 leaf-stage of weed, 25DAA; for pest or weed control at 30 g/ha: Digitaria sanguinalis, post-emergence, 600 h.
Data set [5] relates to Abutilon theophrasti. The experiment in a line: Weeding effect in post-emergence stage. As to conditions: 250 g/ha; 2 leaf stage; 15 days after application; fresh weight control rate. The method in brief: (§4)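 Pot-grown weeds sprayed post-emergence at the 2-leaf stage, 2 weeks after sowing, with compound in acetone/Tween 80 plus 1.5 L/ha methyl oleate concentrate at 500–15 g/ha. Fresh-weight growth control scored after 15 days in greenhouse, mean of three replicates, graded levels 0–5 (5: >85%, 0: <5%).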

In data set [6] the test system is Amaranthus retroflexus. Nature of the data set: Weeding effect in post-emergence stage. As to conditions: 250 g/ha; 2 leaf stage; 15 days after application; fresh weight control rate. The method in brief:
as §4

In data set [7] the test system is Digitaria sanguinalis. Nature of the data set: Weeding effect in post-emergence stage. As to conditions: 250 g/ha; 2 leaf stage; 15 days after application; fresh weight control rate. The method in brief:
as §4

The subject of data set [8] is Echinochloa crusgali. The experiment in a line: Weeding effect in post-emergence stage. The conditions noted are these: 250 g/ha; 2 leaf stage; 15 days after application; fresh weight control rate. The method in brief:
as §4

Data set [9] concerns Setaria viridis. The experiment in a line: Weeding effect in post-emergence stage. The conditions noted are these: 250 g/ha; 2 leaf stage; 15 days after application; fresh weight control rate. In a few lines: as §4
In data set [10] the test system is key weeds such as Digitaria sanguinalis, Leptochloa chinensis. The experiment in a line: Comparison experiment (post-emergence, Tables 4-7), herbicidal activity on weeds not listed separately. As to conditions: dose of 125, 60, 30, 15 g/ha. The method in brief:
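Weeds sown in soil-filled pots, covered with 0.5-2 cm soil and grown in greenhouse; sprayed at 2-leaf stage (2 weeks after sowing) with compound in acetone/Tween 80 plus 1.5 liter/ha methyl oleate concentrate. Doses 500–15 g/ha; fresh weight control rated after 15 days, mean of three repeats.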

Data set [11] relates to rice and other crops. Nature of the data set: Comparison experiment (post-emergence, Tables 4-7), crop safety. As to conditions: dose of 125, 60, 30, 15 g/ha.
Description: as §1
Experiment on weeding effect in post-emergence stage: monocotyledonous and dicotyledonous weed seeds (Descurainia sophia, Capsella bursa-pastoris, Galium aparine, Stellaria media, Lithospermum arvense, Rorippa indica, Alopecurus aequalis, Beckmannia syzigachne, Sclerochloa dura, Phleum paniculatum, Bromus japonicus, Aegilops tauschii, Phalaris arundinacea, Amaranthus retroflexus, Chenopodiaceae, Commelina communis, Sonchus arvensis, convolvulus arvensis, Cirsium setosum, Solanum nigrum, Acalypha australis, Digitaria sanguinalis, Echinochloa crusgalli, Setaria viridis, Setaria glauca, Leptochloa chinensis, Monochoria vaginalis, Sagittaria trifolia, Scirpus juncoides, Cyperus rotundus, Cyperus iria, Cyperus difformis, Fimbristylis, Portulaca oleracea, Xanthium sibiricum, Pharbitis nil) and major crop seeds (wheat, corn, rice, soybean, cotton, oilseed rape, millet, sorghum, potato, sesame, ricinus) were placed in plastic pots filled with soil, then covered with 0.5-2 cm of soil, allowed to grow in a good greenhouse environment. After 2 weeks of sowing, the test plants were treated in the 2 leaf stage. The tested compounds of the present invention were respectively dissolved in acetone, then added with Tween 80 and 1.5 liter/ha of emulsifiable concentrate of methyl oleate as synergist, diluted with a certain amount of water to obtain a solution with a certain concentration, and sprayed with a spray tower onto the plants. After the application, the plants were cultured for 15 days in the greenhouse, and then the experimental results of the weeding were counted. The doses of the used compounds were 500, 250, 125, 60, 30, 15 g/ha, and the averages were obtained by repeating for three times.
as §3

One may read the pest or weed control as how far the test organism was held down. `Cc1nnc(NC(=O)c2ccc(C(F)(F)F)c([S+](C)[O-])c2F)o1` (single isomer, unassigned) [Control Compound C]: the “Results of comparison experiment, Abutilon theophrasti (30 g/ha)” value (“Results … Abutilon theophrasti (30 g/ha)” below) in [1] stood at 60%. For the same molecule, the “Results of comparison experiment, Green Setaria viridis (60 g/ha)” value (from here on “Results … Green Setaria viridis (60 g/ha)”) in [2] worked out at 20%. Further, the “Results of comparison experiment, Leptochloa chinensis (60 g/ha)” value (“Results … Leptochloa chinensis (60 g/ha)” below) in [3] is given as 0%. Besides, in [4], the pest or weed control at 30 g/ha was 0%.

For `Cc1nnc(NC(=O)c2ccc(C(F)(F)F)c([S+](C)[O-])c2F)o1` (single isomer, unassigned) [Control Compound D], in [1], the “Results … Abutilon theophrasti (30 g/ha)” value was determined as 50%. Further, in data set [2], the “Results … Green Setaria viridis (60 g/ha)” value was 10%. Moreover, in [3], the “Results … Leptochloa chinensis (60 g/ha)” value amounted to 0%. The “Results of comparison experiment, Digitaria sanguinalis (30 g/ha)” value in data set [4] is 0%.

With `Cc1nnc(NC(=O)c2ccc(C(F)(F)F)c([S@@+](C)[O-])c2F)o1` [Compound 1], in data set [5], the “weeding effect in post-emergence stage, activity level (growth control rate), Abutilon theophrasti” value (from here on “weeding effect … Abutilon theophrasti”) was 5 (Level 5: growth control rate is above 85%). In data set [6], the “weeding effect in post-emergence stage, activity level (growth control rate), Amaranthus retroflexus” value (“weeding effect … Amaranthus retroflexus” below) is on record as 5 (Level 5: growth control rate is above 85%). Besides, in data set [7], the “weeding effect in post-emergence stage, activity level (growth control rate), Digitaria sanguinalis” value (“weeding effect … Digitaria sanguinalis” for short) is 3 (Level 3: growth control rate is greater than or equal to 40% and less than 60%). In data set [8], the “weeding effect in post-emergence stage, activity level (growth control rate), Echinochloa crusgali” value (“weeding effect … Echinochloa crusgali” for short) is listed as 5 (Level 5: growth control rate is above 85%). In addition, the “weeding effect in post-emergence stage, activity level (growth control rate), Setaria viridis” value (“weeding effect … Setaria viridis” below) in data set [9] was 3 (Level 3: growth control rate is greater than or equal to 40% and less than 60%). Besides, the “Results … Abutilon theophrasti (30 g/ha)” value in data set [1] came out at 100%. Moreover, in data set [2], the “Results … Green Setaria viridis (60 g/ha)” value came to 80%. For the same molecule, the “Results … Leptochloa chinensis (60 g/ha)” value in data set [3] stood at 70%. Besides, the “Results of comparison experiment, Digitaria sanguinalis (30 g/ha)” value in data set [4] was found to be 90%.

Turning to `Cc1nnc(NC(=O)c2ccc(C(F)(F)F)c([S@@+]([O-])C[S+](C)[O-])c2F)o1` (some centres unmarked) [Compound 205], the “weeding effect … Abutilon theophrasti” value in data set [5] is reported as 5 (Level 5: growth control rate is above 85%). Also, in data set [6], the “weeding effect … Amaranthus retroflexus” value is on record as 5 (Level 5: growth control rate is above 85%). The “weeding effect … Digitaria sanguinalis” value in [7] is on record as 5 (Level 5: growth control rate is above 85%). The “weeding effect … Echinochloa crusgali” value in data set [8] is 5 (Level 5: growth control rate is above 85%). Further, in data set [9], the “weeding effect … Setaria viridis” value is given as 5 (Level 5: growth control rate is above 85%). In data set [10], the “activity to key weeds such as Digitaria sanguinalis, Leptochloa chinensis compared with the corresponding racemate or S configuration” value was “better activity”. Further, the “safety to rice and other crops compared with the corresponding racemate or S configuration” value in data set [11] is listed as “higher safety”.

Take `CCC[S@@+]([O-])c1c(C(F)(F)F)ccc(C(=O)N(c2nnc(C)o2)C(C)OC(=O)OCC)c1F` (some centres unmarked) [Compound 261]: in [5], the “weeding effect … Abutilon theophrasti” value was 5 (Level 5: growth control rate is above 85%). The “weeding effect … Amaranthus retroflexus” value in data set [6] is 5 (Level 5: growth control rate is above 85%). In addition, the “weeding effect … Digitaria sanguinalis” value in [7] is given as 5 (Level 5: growth control rate is above 85%). Moreover, the “weeding effect … Echinochloa crusgali” value in data set [8] was 5 (Level 5: growth control rate is above 85%). For the same molecule, the “weeding effect … Setaria viridis” value in [9] was 5 (Level 5: growth control rate is above 85%). For the same molecule, the “activity to key weeds such as Digitaria sanguinalis, Leptochloa chinensis compared with the corresponding racemate or S configuration” value in data set [10] is recorded as “better activity”. The “safety to rice and other crops compared with the corresponding racemate or S configuration” value in data set [11] is reported as “higher safety”.

Take `CCC[S@@+]([O-])c1c(C(F)F)ccc(C(=O)Nc2nnc(C)o2)c1Cl` [Compound 617]: the “weeding effect … Abutilon theophrasti” value in [5] is listed as 5 (Level 5: growth control rate is above 85%). In data set [6], the “weeding effect … Amaranthus retroflexus” value was 5 (Level 5: growth control rate is above 85%). Moreover, the “weeding effect … Digitaria sanguinalis” value in data set [7] was 5 (Level 5: growth control rate is above 85%). Further, in [8], the “weeding effect … Echinochloa crusgali” value is 5 (Level 5: growth control rate is above 85%). Further, the “weeding effect … Setaria viridis” value in [9] is given as 5 (Level 5: growth control rate is above 85%). The “activity to key weeds such as Digitaria sanguinalis, Leptochloa chinensis compared with the corresponding racemate or S configuration” value in [10] is on record as “better activity”. Besides, in [11], the “safety to rice and other crops compared with the corresponding racemate or S configuration” value is “higher safety”.

In the case of `CCC[S@@+]([O-])c1c(C(F)F)ccc(C(=O)Nc2nnc(C)o2)c1F` [Compound 637], in data set [5], the “weeding effect … Abutilon theophrasti” value was 5 (Level 5: growth control rate is above 85%). In data set [6], the “weeding effect … Amaranthus retroflexus” value is reported as 5 (Level 5: growth control rate is above 85%). The “weeding effect … Digitaria sanguinalis” value in data set [7] is on record as 5 (Level 5: growth control rate is above 85%). The “weeding effect … Echinochloa crusgali” value in data set [8] is given as 5 (Level 5: growth control rate is above 85%). Further, the “weeding effect … Setaria viridis” value in [9] is reported as 5 (Level 5: growth control rate is above 85%). Also, the “Results … Abutilon theophrasti (30 g/ha)” value in data set [1] came out at 100%. In addition, in data set [2], the “Results … Green Setaria viridis (60 g/ha)” value stood at 100%. Moreover, in data set [3], the “Results … Leptochloa chinensis (60 g/ha)” value stood at 90%. In data set [10], the “activity to key weeds such as Digitaria sanguinalis, Leptochloa chinensis compared with the corresponding racemate or S configuration” value was “better activity”. Also, the “safety to rice and other crops compared with the corresponding racemate or S configuration” value in data set [11] is “higher safety”. Besides, the pest or weed control at 30 g/ha in data set [4] came out at 100%.

With `Cc1nnc(NC(=O)c2ccc(C(F)F)c([S+](C)[O-])c2F)o1` (centres unmarked) [Control Compound E], in data set [1], the “Results … Abutilon theophrasti (30 g/ha)” value came out at 60%. Further, in data set [2], the “Results … Green Setaria viridis (60 g/ha)” value is reported as 25%. Also, the “Results … Leptochloa chinensis (60 g/ha)” value in data set [3] is 10%. Further, the pest or weed control at 30 g/ha in data set [4] was 5%.
